What follows are molecules tested against recombinant Human Phosphodiesterase B2 (PDE4B2) (Homo sapiens, UniProt Q07343) (assay: Human Phosphodiesterase B2 Radiometric Assay (yttrium silicate SPA beads, [3H]cyclic AMP)). Details: recombinant human PDE4B2, radiometric SPA assay, 8 nM [3H]cyclic AMP; read-out: PDE4B2 pIC50 (converted).
Sequence of recombinant Human Phosphodiesterase B2 (PDE4B2) (Q07343 1-564 isoform Q07343-2): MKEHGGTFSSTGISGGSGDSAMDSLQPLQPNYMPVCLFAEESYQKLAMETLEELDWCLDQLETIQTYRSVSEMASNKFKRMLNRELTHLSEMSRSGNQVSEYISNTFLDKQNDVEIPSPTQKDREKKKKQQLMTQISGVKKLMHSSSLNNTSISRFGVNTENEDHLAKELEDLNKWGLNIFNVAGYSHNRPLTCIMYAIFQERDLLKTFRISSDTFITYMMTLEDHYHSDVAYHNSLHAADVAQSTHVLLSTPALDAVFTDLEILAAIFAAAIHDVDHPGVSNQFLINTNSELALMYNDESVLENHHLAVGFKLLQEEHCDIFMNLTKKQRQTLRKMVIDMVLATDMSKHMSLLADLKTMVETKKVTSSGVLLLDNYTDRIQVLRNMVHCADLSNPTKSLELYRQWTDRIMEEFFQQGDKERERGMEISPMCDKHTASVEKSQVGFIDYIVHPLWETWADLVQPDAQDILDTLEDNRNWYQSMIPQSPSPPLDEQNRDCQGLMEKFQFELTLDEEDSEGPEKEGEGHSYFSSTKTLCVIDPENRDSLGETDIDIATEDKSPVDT
Format: biochemical
In short: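 Compounds were preincubated 30 min at 30 °C with 0.1 mg/mL PDE4B2 in 50 mM HEPES pH 7.5, 8.3 mM MgCl2, 1.7 mM EGTA, 0.01% Brij 35. Then 8 nM [3H]cAMP was added for 20 min, stopped with yttrium silicate SPA beads plus 18 mM ZnSO4 capturing product 5′AMP; pIC50 by curve fitting.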
Molecule `Cc1cc(C(=O)N[C@H]2CC[C@@H](n3c(=O)c4cc(F)cnc4n(-c4cccc(-c5ccc(CN6CCC(N7CCCCC7)CC6)cc5)c4)c3=O)CC2)nn1C` [Example 289, N-{cis-4-[1-[4′-(1,4′-bipiperidin-1′-ylmethyl)biphenyl-3-yl]-6-fluoro-2,4-dioxo-1,4-dihydropyrido[2,3-d]pyrimidin-3(2H)-yl]cyclohexyl}-1,5-dimethyl-1H-pyrazole-3-carboxamide] has an IC50 of 0.0126 nM. With `CN(C)Cc1cccc(-c2cccc(-n3c(=O)n([C@H]4CC[C@@H](NC(=O)c5cn6cc(F)ccc6n5)CC4)c(=O)c4cc(F)cnc43)c2)c1` [Example 16, N-{cis-4-[1-{3′-[(dimethylamino)methyl]biphenyl-3-yl}-6-fluoro-2,4-dioxo-1,4-dihydropyrido[2,3-d]pyrimidin-3(2H)-yl]cyclohexyl}-6-fluoroimidazo[1,2-a]pyridine-2-carboxamide.] the IC50 was 0.251 nM. `CSc1ccccc1-c1cccc(-n2c(=O)n([C@H]3CC[C@@H](NC(=O)c4cn5cc(F)ccc5n4)CC3)c(=O)c3cc(F)cnc32)c1` [Example 17, 6-fluoro-N-{cis-4-[6-fluoro-1-[2′-(methylthio)biphenyl-3-yl]-2,4-dioxo-1,4-dihydropyrido[2,3-d]pyrimidin-3(2H)-yl]cyclohexyl}imidazo[1,2-a]pyridine-2-carboxamide.] was tested, and the IC50 was 0.00794 nM. `Cc1cc(CN[C@H]2CC[C@@H](n3c(=O)c4cc(F)cnc4n(-c4cccc(-c5ccc(O)cc5CN5CCOCC5)c4)c3=O)CC2)nn1C` [Example 251, 3-(cis-4-{[(1,5-Dimethyl-1H-pyrazol-3-yl)methyl]amino}cyclohexyl)-6-fluoro-1-[4′-hydroxy-2′-(morpholin-4-ylmethyl)biphenyl-3-yl]pyrido[2,3-d]pyrimidine-2,4(1H,3H)-dione] gave an IC50 of 0.1 nM. `O=c1c2cc(F)cnc2n(-c2cccc(-c3ccc(O)cc3CN3CCOCC3)c2)c(=O)n1[C@H]1CC[C@@H](NCc2cccn3ccnc23)CC1` [Example 373, 6-fluoro-1-[4′-hydroxy-2′-(morpholin-4-ylmethyl)biphenyl-3-yl]-3-{cis-4-[(imidazo[1,2-a]pyridin-8-ylmethyl)amino]cyclohexyl} pyrido[2,3-d]pyrimidine-2,4(1H,3H)-dione] showed an IC50 of 0.158 nM. Molecule `O=C(N[C@H]1CC[C@@H](n2c(=O)c3cc(F)cnc3n(-c3cccc(-c4ccc(CN5CCNCC5)cc4O)c3)c2=O)CC1)c1cn2cc(F)ccc2n1` [Example 274, 6-Fluoro-N-{cis-4-[6-fluoro-1-[2′-hydroxy-4′-(piperazin-1-ylmethyl)biphenyl-3-yl]-2,4-dioxo-1,4-dihydropyrido[2,3-d]pyrimidin-3(2H)-yl]cyclohexyl}imidazo[1,2-a]pyridine-2-carboxamide] has an IC50 of 0.0631 nM. Molecule `Cc1cc(C)n2nc(C(=O)N[C@H]3CC[C@@H](n4c(=O)c5cc(F)cnc5n(-c5cccc(-c6ccc(CN7CCC(N8CCCCC8)CC7)cc6)c5)c4=O)CC3)cc2n1` [Example 362, N-{cis-4-[1-[4′-(1,4′-bipiperidin-1′-ylmethyl)biphenyl-3-yl]-6-fluoro-2,4-dioxo-1,4-dihydropyrido[2,3-d]pyrimidin-3(2H)-yl]cyclohexyl}-5,7-dimethylpyrazolo[1,5-a]pyrimidine-2-carboxamide] has an IC50 of 0.0501 nM. In the case of `Cc1oncc1C(=O)N[C@H]1CC[C@@H](n2c(=O)c3cc(F)cnc3n(-c3cccc(-c4ccc(CN5CCN(C(C)C)CC5)cc4)c3)c2=O)CC1` [Example 240, N-{cis-4-[6-fluoro-1-{4′-[(4-isopropylpiperazin-1-yl)methyl]biphenyl-3-yl}-2,4-dioxo-1,4-di-hydropyrido[2,3-d]pyrimidin-3(2H)-yl]cyclohexyl}-5-methyl-isoxazole-4-carboxamide], the IC50 is reported as 0.501 nM. For `CN1CCN(CCc2ccc(-c3cccc(-n4c(=O)n([C@H]5CC[C@@H](NC(=O)c6cn7cc(F)ccc7n6)CC5)c(=O)c5cc(F)cnc54)c3)cc2)CC1` [Example 100, 6-fluoro-N-{cis-4-[6-fluoro-1-{4′-[2-(4-methylpiperazin-1-yl)ethyl]biphenyl-3-yl}-2,4-dioxo-1,4-dihydropyrido[2,3-d]pyrimidin-3(2H)-yl]cyclohexyl}imidazo[1,2-a]pyridine-2-carboxamide], the IC50 was 0.00794 nM. For `Cc1cc(C(=O)N[C@H]2CC[C@@H](n3c(=O)c4cc(F)cnc4n(-c4cccc(-c5ccc(CN6CCC(CO)CC6)cc5)c4)c3=O)CC2)nn1C` [Example 116, N-{cis-4-[6-fluoro-1-(4′-{[4-(hydroxymethyl)piperidin-1-yl]methyl}biphenyl-3-yl)-2,4-dioxo-1,4-dihydropyrido[2,3-d]pyrimidin-3(2H)-yl]cyclohexyl}-1,5-dimethyl-1H-pyrazole-3-carboxamide], the IC50 was 0.0501 nM. Work on `O=C(N[C@H]1CC[C@@H](n2c(=O)c3cc(F)cnc3n(-c3cccc(-c4ccc(CN5CCSCC5)cc4)c3)c2=O)CC1)c1cn2c(n1)CCCC2` [Example 135, N-{cis-4-[6-fluoro-2,4-dioxo-1-[4′-(thiomorpholin-4-ylmethyl)biphenyl-3-yl]-1,4-dihydropyrido[2,3-d]pyrimidin-3(2H)-yl]cyclohexyl}-5,6,7,8-tetrahydroimidazo[1,2-a]pyridine-2-carboxamide] yielded an IC50 of 0.00316 nM. `CC(=O)N[C@H]1CC[C@@H](n2c(=O)c3cc(F)cnc3n(-c3cccc(-c4ccc(CN5CCN(C(C)C)CC5)cc4)c3)c2=O)CC1` [Example 232, N-{cis-4-[6-Fluoro-1-{4′-[(4-isopropylpiperazin-1-yl)methyl]biphenyl-3-yl}-2,4-dioxo-1,4-dihydropyrido[2,3-d]pyrimidin-3(2H)-yl]cyclohexyl}acetamide] showed an IC50 of 0.251 nM. Work on `CNCCNCc1ccc(-c2cc(C)cc(-n3c(=O)n([C@H]4CC[C@@H](NC(=O)c5cn6cc(F)ccc6n5)CC4)c(=O)c4cc(F)cnc43)c2)cc1` [Example 231] yielded an IC50 of 0.126 nM. Molecule `CN(CCc1ccc(-c2cccc(-n3c(=O)n([C@H]4CC[C@@H](NC(=O)c5cn6cc(F)ccc6n5)CC4)c(=O)c4cc(F)cnc43)c2)cc1)C(C)(C)C` [Example 101, N-{cis-4-[1-(4′-{2-[tert-butyl(methyl)amino]ethyl}biphenyl-3-yl)-6-fluoro-2,4-dioxo-1,4-dihydropyrido[2,3-d]pyrimidin-3(2H)-yl]cyclohexyl}-6-fluoroimidazo[1,2-a]pyridine-2-carboxamide] has an IC50 of 0.1 nM. `O=C(N[C@H]1CC[C@@H](n2c(=O)c3cc(F)cnc3n(-c3cccc(-c4ccccc4)c3)c2=O)CC1)c1cn2ccccc2n1` [Example 3, N-[cis-4-(1-biphenyl-3-yl-6-fluoro-2,4-dioxo-1,4-dihydropyrido[2,3-d]pyrimidin-3(2H)-yl)cyclohexyl]imidazo[1,2-a]pyridine-2-carboxamide] was tested, and the IC50 was 0.0316 nM. Work on `Cc1cc(C(=O)N[C@H]2CC[C@@H](n3c(=O)c4cc(F)cnc4n(-c4cccc(-c5ccc(CNCCC(C)C)cc5)c4)c3=O)CC2)nn1C` [Example 115, N-{cis-4-[6-fluoro-1-(4′-{[(3-methylbutyl)amino]methyl}biphenyl-3-yl)-2,4-dioxo-1,4-dihydropyrido[2,3-d]-pyrimidin-3(2H)-yl]cyclohexyl}-1,5-dimethyl-1H-pyrazole-3-carboxamide] yielded an IC50 of 0.0398 nM. `O=c1c2cc(F)cnc2n(-c2cccc(-c3ccc(O)cc3CN3CC[C@@H](O)C3)c2)c(=O)n1[C@H]1CC[C@@H](NCc2cn3cc(F)ccc3n2)CC1` [Example 326, 6-fluoro-3-(cis-4-{[(6-fluoroimidazo[1,2-a]pyridin-2-yl)methyl]amino}cyclohexyl)-1-(4′-hydroxy-2′-{[(3R)-3-hydroxypyrrolidin-1-yl]methyl}biphenyl-3-yl)pyrido[2,3-d]pyrimidine-2,4(1H,3H)-dione] showed an IC50 of 0.398 nM.
